From patent US20160220574A1, “NSAID AND SIGMA RECEPTOR LIGAND COMBINATIONS” (LABORATORIOS DEL DR. ESTEVE, S.A., priority 2013, published 2016)
Where two headings read alike, the source gives them in different places.

Assays:
[1] = tested on: mechanical allodynia of the post-operative pain model in rats; assay: Mechanical allodynia (von Frey filaments) in the post-operative pain model (plantar incision) in rats; assay type: in vivo; conditions: for doses producing significant effect, Sigma antagonist alone: BD1063 alone 20, 40 and 80 mg/kg, compound 63.HCl alone 10, 20, 40 and 80 mg/kg
Procedure: The induction of anesthesia in rats was performed with 3% isofluran for veterinary use, employing an Ohmeda vaporizer and an anesthesia chamber. Anesthesia was kept during the surgical operation by a tube which directs the isofluran vapors to the animal's snout. Once the rats were anesthetized, they were laid down in a prone position and their right hind paws were cleaned out with alcohol. Then, a skin incision in the hindpaw of about 10 mm was made by means of a scalpel, starting about 5 mm from the heel and extending toward the toes. Fascia was located and by means of curve scissors muscle was elevated and a longitudinal incision of about 5 mm was made, thus the muscle origin and insertion remained intact. The skin of the paw was stitched with a suturing stitch with breaded silk (3.0) and the wound was cleaned out with povidone. The assessment was performed 30 minutes after the administration of product and always 4 hours after the plantar incision. The analysis was carried out evaluating the mechanical allodynia. It was tested using von Frey filaments: Animals were placed in methacrylate cylinders on an elevated surface, with metallic mesh floor perforated in order to apply the filaments. […] The animal's response to pain was manifested by the withdrawal of the paw as a consequence of the painful stimulus caused by a filament.

D2 receptors = conditions: rodent brain membranes and human neuroblastoma cells; compared with haloperidol; cited from earlier work
σ1 receptors = conditions: rodent brain membranes and human neuroblastoma cells, cited from earlier work
sigma-1 receptors = conditions: both in experimental animals and human cells; cited from earlier work

Which ED50 ([1]; Rattus norvegicus, rats, compound alone, administered 3.5 hours after surgery, assessed 30 minutes after administration, 4 hours after plantar incision, read-out: ED50 (dose-dependent effect), Sigma antagonist alone) does the source give for `CN1CCN(CCc2ccc(Cl)c(Cl)c2)CC1` [BD1063, 1-[2-(3,4-dichlorophenyl)ethyl]-4-methylpiperazine] here?
Its ED50 is 56.2 mg/kg.

And the “doses producing significant effect, Sigma antagonist alone” value ([1]; rats)?
The value was “significant effect only at 40 and 80 mg/kg”.

Which “Mean of the porcentage of analgesia in the post-operative pain model, Compounds alone” value (“Mean of the porcentage of analgesia” for short) ([1]; dose 0.625 mg/kg) does the source give for `Cc1ccc(-c2cc(C(F)(F)F)nn2-c2ccc(S(N)(=O)=O)cc2)cc1` [Celecoxib] here?
The value was 13%.

And the “effect of NSAID alone” value ([1]; rats, NSAID alone 0.625 mg/kg)?
Its value is “no significant effect”.

For `O=C(O)Cc1ccccc1Nc1c(Cl)cccc1Cl` [Diclofenac], which “Mean of the porcentage of analgesia” value ([1]; dose 0.625 mg/kg) is on record?
Its value is 13%.

And the “effect of NSAID alone” value ([1]; rats, NSAID alone 0.312 mg/kg)?
The value was “no significant effect”.

Which results are given for `CC(C)Cc1ccc(C(C)C(=O)O)cc1` (centres unmarked) [Ibuprofen]?
Mean of the porcentage of analgesia in the post-operative pain model, Compounds alone ([1]; dose 0.625 mg/kg): 16%; effect of NSAID alone ([1]; rats, NSAID alone 0.625 mg/kg): no significant effect

With `Cc1c(N(C)CS(=O)(=O)O)c(=O)n(-c2ccccc2)n1C` [Metamizole] as the compound, how does the “Mean of the porcentage of analgesia” value ([1]; dose 0.156 mg/kg) read?
The value was 14%.

And the “effect of NSAID alone” value ([1]; rats, NSAID alone 0.156 mg/kg)?
The value was “no significant effect”.

Which results are given for `COc1ccc2cc([C@H](C)C(=O)O)ccc2c1` [Naproxen]?
Mean of the porcentage of analgesia in the post-operative pain model, Compounds alone ([1]; dose 0.312 mg/kg): 13%; effect of NSAID alone ([1]; rats, NSAID alone 0.312 mg/kg): no significant effect

Which results are given for `CC(=O)Nc1ccc(O)cc1` [Paracetamol]?
Mean of the porcentage of analgesia in the post-operative pain model, Compounds alone ([1]; dose 20 mg/kg): 13%; effect of NSAID alone ([1]; rats, NSAID alone 20 mg/kg): no significant effect

With `Cc1cc(OCCN2CCOCC2)nn1-c1ccc2ccccc2c1` [compound 63, 4-{2-[5-Methyl-1-(naphthalen-2-yl)-1H-pyrazol-3-yloxy]ethyl}morpholine] as the compound, how does the “Mean of the porcentage of analgesia” value ([1]; dose 10 mg/kg) read?
Its value is 2%.

And the “Mean of the porcentage of analgesia” value ([1]; dose 20 mg/kg)?
The value was 15%.

And the “Mean of the porcentage of analgesia” value ([1]; dose 40 mg/kg)?
The value was 43%.

And the “Mean of the porcentage of analgesia” value ([1]; dose 80 mg/kg)?
Its value is 41%.

What does the source list for `Cc1cc(OCCN2CCOCC2)nn1-c1ccc2ccccc2c1.Cl` [compound 63.HCl, 4-{2-[5-Methyl-1-(naphthalen-2-yl)-1H-pyrazol-3-yloxy]ethyl}morpholine hydrochloride]?
doses producing significant effect, Sigma antagonist alone ([1]; rats): significant effect only at 40 and 80 mg/kg; maximum effect / maximum efficacy, Sigma antagonist alone ([1]; rats, compound alone (10, 20, 40 and 80 mg/kg), without sub-active dose of NSAID, 3.5 hours after surgery): 43%

What does the source list for `OC1(c2ccc(Cl)cc2)CCNCC1` [metabolite I, 4-(4-chlorophenyl)-4-hydroxypiperidine]?
affinity for D2 receptors (D2 receptors): no affinity; affinity for σ1 (sigma-1) receptors (σ1 receptors): less affinity than haloperidol

For `OC(CCCN1CCC(O)(c2ccc(Cl)cc2)CC1)c1ccc(F)cc1` (centres unmarked) [metabolite II, 4-(4-chlorophenyl)-[…]-(4-fluorophenyl)-4-hydroxy-1-piperidinebutanol], which “blockade of sigma-1 receptors” value (sigma-1 receptors) is on record?
Its value is “irreversible blockade”.

And the “affinity for D2 receptors” value (D2 receptors)?
Its value is “much lower”.

And the “affinity for σ1 (sigma-1) receptors” value (σ1 receptors)?
The value was “less affinity than haloperidol”.

What about the “affinity for σ1 (sigma-1) receptors” value (σ1 receptors; listed as Reduced haloperidol) of the same compound?
The value was “high affinity (in the low nanomolar range)”.
